Structures are written as SMILES.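 Tested at 5 concentrations; 48 h exposure; 96-well plates; endpoints linearly interpolated, else capped at highest concentration. The concentration for 50% growth inhibition is given as GI50. At the TGI there is no net growth.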

Test systems include RXF 393 renal; SNB-19 CNS; UACC-257 melanoma; NCI-H226 lung; SF-268 CNS; K-562 leukemia; MCF7 breast; IGROV1 ovarian; SK-MEL-2 melanoma; CAKI-1 renal.
Holding throughout (test): inhibition of tumour cell growth, NCI panel, 48 h

`CCCC(=O)NNc1[nH]c(-c2ccc(OC)cc2)cc1C(=O)OCC`: the GI50 is 22 µM with RXF 393 renal; 54.3 µM in the assay with SNB-19 CNS; 1.6 µM with UACC-257 melanoma; 16.1 µM in the assay on NCI-H226 lung; 14.6 µM with SF-268 CNS; 9.61 µM in the assay on K-562 leukemia. Further, the GI50 in the assay with MCF7 breast was 17.7 µM; with IGROV1 ovarian it was 21.2 µM; in the assay on SK-MEL-2 melanoma it was 4.59 µM; in the assay on CAKI-1 renal, 12.5 µM. In addition, the TGI with RXF 393 renal was 45.1 µM; in the assay with SNB-19 CNS, more than 100 µM; in the assay on UACC-257 melanoma it was 14.8 µM; with NCI-H226 lung, 30.1 µM; in the assay with SF-268 CNS, 31 µM; with K-562 leukemia, more than 100 µM. In addition, the TGI in the assay with MCF7 breast was found to be 35.3 µM; in the assay on IGROV1 ovarian, 39.5 µM; in the assay with SK-MEL-2 melanoma, 8.48 µM; with CAKI-1 renal it was 25.7 µM.

Regarding `COc1cccc2c1c1nc3cc(C)c(C)cc3nc1n2CCN(C)C`, the GI50 with RXF 393 renal was 1.59 µM; in the assay on SNB-19 CNS, 2.04 µM; in the assay on UACC-257 melanoma it was 1.9 µM; with NCI-H226 lung it was 1.63 µM; in the assay with SF-268 CNS, 2.13 µM; with K-562 leukemia, 0.982 µM. The GI50 with MCF7 breast is 2.13 µM; in the assay with IGROV1 ovarian, 1.76 µM; with SK-MEL-2 melanoma, 1.85 µM; in the assay with CAKI-1 renal it was 0.946 µM. In addition, the TGI with RXF 393 renal stood at 3.54 µM; with SNB-19 CNS, 14 µM; with UACC-257 melanoma, 4.74 µM; in the assay with NCI-H226 lung it was 6.45 µM; in the assay with SF-268 CNS, 7.45 µM; in the assay on K-562 leukemia, 9.12 µM. Also, the TGI with MCF7 breast was found to be 10.9 µM; in the assay with IGROV1 ovarian it was 10.7 µM; in the assay on SK-MEL-2 melanoma it was 4.39 µM; in the assay on CAKI-1 renal, 6.34 µM.

For the molecule `COc1ccc(F)cc1C(=O)c1cnc(NC2CCN(S(C)(=O)=O)CC2)nc1N`, the GI50 in the assay with RXF 393 renal was 2.75 µM; in the assay on SNB-19 CNS, 1.8 µM; in the assay on UACC-257 melanoma it was 4.24 µM; with NCI-H226 lung, 2.56 µM; in the assay with SF-268 CNS, 4.58 µM; with K-562 leukemia it was 6.25 µM. Moreover, the GI50 is 0.18 µM in the assay with MCF7 breast, 1.84 µM with IGROV1 ovarian, 3.48 µM in the assay with SK-MEL-2 melanoma and 2.88 µM in the assay with CAKI-1 renal. Besides, the TGI in the assay on RXF 393 renal was 6.58 µM; in the assay with SNB-19 CNS, more than 25 µM; with UACC-257 melanoma, 15.5 µM; in the assay with NCI-H226 lung it was more than 20.6 µM; with SF-268 CNS, 18.1 µM; with K-562 leukemia, more than 25 µM. Also, the TGI in the assay with MCF7 breast was more than 25 µM; with IGROV1 ovarian it was more than 13.6 µM; in the assay on SK-MEL-2 melanoma, 9.76 µM; in the assay with CAKI-1 renal, more than 17.6 µM.

Consider `CO[C@H](C(=O)N[C@@H](CCCCNC(=O)OCc1ccccc1)C(=O)OC(C)(C)C)[C@@H]1Cc2cc3cc(OC4CC(OC5CC(O)C(O)C(C)O5)C(O)C(C)O4)c(C)c(O)c3c(O)c2C(=O)[C@H]1OC1CC(OC2CC(OC3CC(C)(O)C(O)C(C)O3)C(O)C(C)O2)C(O)C(C)O1` (stereo not given in full), for which the GI50 is 0.705 µM in the assay on RXF 393 renal; 0.52 µM in the assay with SNB-19 CNS; 0.812 µM in the assay with UACC-257 melanoma; 0.673 µM with NCI-H226 lung; 0.624 µM in the assay on SF-268 CNS; 0.635 µM in the assay with K-562 leukemia. The GI50 in the assay with MCF7 breast was 0.281 µM; with IGROV1 ovarian, 0.449 µM; in the assay with SK-MEL-2 melanoma, 0.942 µM; in the assay on CAKI-1 renal, 1.04 µM. The TGI is 2.02 µM in the assay on RXF 393 renal; 2.6 µM in the assay with SNB-19 CNS; 4.01 µM with UACC-257 melanoma; 2.14 µM in the assay with NCI-H226 lung; 2.03 µM in the assay on SF-268 CNS; more than 10 µM in the assay on K-562 leukemia. Also, the TGI was 2.03 µM in the assay with MCF7 breast, more than 10 µM in the assay on IGROV1 ovarian, 3.29 µM with SK-MEL-2 melanoma and 3.42 µM in the assay with CAKI-1 renal.

As to `CO[C@H]1CC[C@@]2(C)C(=CC[C@H]3[C@@H]4C[C@H](O)C[C@@]4(C)CC[C@@H]32)C1`, the GI50 with RXF 393 renal was 2.49 µM; in the assay on SNB-19 CNS, 4.86 µM; with UACC-257 melanoma it was 4.89 µM; with NCI-H226 lung, 13.8 µM; in the assay with SF-268 CNS, 6.42 µM; with K-562 leukemia, 2.78 µM. Moreover, the GI50 in the assay on MCF7 breast is 5.32 µM; with IGROV1 ovarian it was 6.91 µM; in the assay on SK-MEL-2 melanoma it was 2.74 µM; with CAKI-1 renal, 2.93 µM. The TGI in the assay with RXF 393 renal worked out at 6.57 µM; in the assay on SNB-19 CNS, 22.2 µM; in the assay with UACC-257 melanoma it was 17.9 µM; in the assay with NCI-H226 lung, 27.8 µM; with SF-268 CNS it was 21.4 µM; in the assay with K-562 leukemia, 16 µM. Besides, the TGI in the assay with MCF7 breast stood at 25.3 µM; with IGROV1 ovarian, 26.5 µM; in the assay with SK-MEL-2 melanoma, 6.83 µM; with CAKI-1 renal it was 16.3 µM.

As for `COc1cc(C(=O)n2nc(N3CCN(C)CC3)c3cc(N)ccc32)cc(OC)c1OC`, the GI50 with RXF 393 renal was 3.04 µM; in the assay with SNB-19 CNS, 4.75 µM; with UACC-257 melanoma it was 28.5 µM; with NCI-H226 lung it was 5.61 µM; with SF-268 CNS it was 4.19 µM; with K-562 leukemia, 3.57 µM. In addition, the GI50 with MCF7 breast is 3.02 µM; in the assay on IGROV1 ovarian it was 4.88 µM; in the assay on SK-MEL-2 melanoma, 10.4 µM; in the assay on CAKI-1 renal, 4.52 µM. Further, the TGI with RXF 393 renal was more than 100 µM; in the assay with SNB-19 CNS, more than 100 µM; in the assay on UACC-257 melanoma it was more than 100 µM; with NCI-H226 lung, 34.5 µM; in the assay with SF-268 CNS it was 88.9 µM; in the assay on K-562 leukemia, 13.2 µM. The TGI was more than 100 µM in the assay on MCF7 breast, more than 100 µM in the assay with IGROV1 ovarian, 67.5 µM in the assay on SK-MEL-2 melanoma and more than 100 µM with CAKI-1 renal.

On to `COC(=O)C#Cc1ccc([N+](=O)[O-])cc1`, for which the TGI stood at 4.11 µM with RXF 393 renal; 8.47 µM with SNB-19 CNS; 7.12 µM in the assay with UACC-257 melanoma; 5.72 µM in the assay on NCI-H226 lung; 14 µM in the assay with SF-268 CNS; 12.9 µM with K-562 leukemia. Besides, the TGI in the assay on MCF7 breast came out at 9.04 µM; in the assay with IGROV1 ovarian, 3.92 µM; with SK-MEL-2 melanoma, 7.98 µM; with CAKI-1 renal, 2.74 µM.

The record behind these values is PubChem BioAssay (NCI).
